“Also recorded” adds a separate entry of the source. LPG = linear polyglycerol, Mn 14,900 Da
Tests used:
Ea.hy926 cells = test: Lifetime of grafted polymer on the cell surface; format: cell-based; settings: 37° C., after ligation with 0.5 mM polymer
Method: For lifetime measurements, polymers were attached to endothelial surfaces according to procedures outlined herein using 0.5 mM LPG-Q (10% BODIPY FL™) and exchanged into phenol-free DMEM (5% FBS, pen/strep) and incubated at 37° C. and 5% CO2. For each time point the supernatant was removed and saved for further analysis and the cell monolayers were trypsinized and subjected to flow cytometry (CytoFLEX™, Beckman Coulter™) in which 10,000 events were acquired and the median fluorescent intensity (MFI) in the 488 channel was recorded. The fluorescent intensity of the BODIPY-FL Dye in the supernatant was measured (λex/λem=503/520 nm using) a plate reader (Spectramax i3™, Molecular Devices™). Intensity values were normalized to the total cell number in each well as assessed by a trypan blue staining assay.

cell-surface ICAM-1 = test: ICAM-1 labelling by flow cytometry (immunocamouflage); format: cell-based, human; settings: TNF-α activated Ea.hy926, 0.2-3.0 mM polymer, UW, 4° C.
Method: For ICAM-1 labelling, Ea.hy926 cells were activated with TNF-α (2000 U/mL, 3 hours)^9 in serum deficient DMEM to stimulate the expression of ICAM-1 on the cell surface before polymer attachment. To account for differences in reactivity between Q-tagged polymers, concentrations of polymer added to the solution were adjusted using NH3 generation data to ensure that a similar number of polymers attached to the cell surface. Following polymer attachment, the cells were fixed, and labelled with PE-Cy™5 Mouse Anti-Human CD54 (1:20, BD Biosciences™) for 20 minutes at room temp in the dark. The cell monolayers were trypsinized and subjected to flow cytometry (CytoFLEX™, Beckman Coulter™) in which 10,000 events were acquired and the median fluorescent intensity in the 667 channel was recorded

[1] = system: IL-2 activated PBMCs on TNF-α activated Ea.hy926 monolayers; test: PBMC adhesion to endothelial surfaces; format: cell-based, human; settings: 0.5 mM LPG-Q or 0.56 mM LPG-Q-Sia3Lac
Method: Confluent Ea.hy926 monolayers seeded in a 48 well plate (30,000 cells/well) were activated with TNF-α (2000 U/mL, 3 hours). To obtain PBMCs, EDTA anticoagulated blood from healthy donors was subjected to ficoll density gradient centrifugation Histopaque™-1077 (Sigma Aldrich™). PBMCs were cultured for 24 h in RPMI-1640 containing 10% FBS (v/v), 1000 U/mL recombinant human IL-2 (Cedarlane™)^11 and 1% P/S. Prior to fluorescent labelling, cultured PBMCs were tested for absence of platelets by labelling an aliquot of cells with FITC-labelled anti-human […] (1:200 Beckman Coulter™) and analyzed by flow cytometry (CytoFLEX™, Beckman Coulter™). PBMCs containing <1% platelets were implemented for further study. The PBMC composition was also measured using a hematological analyzer (XN-550™ automated hematology analyzer, Sysmex Canada Inc.™). Following IL-2 treatment the typical composition of the PBMCs were ˜80% lymphocytes, 5% immature granulocytes, 2% basophils and 13% monocytes. […] PMBC adhesion was quantified by lysing the cells with RIPA buffer, spinning at 15,000 g to remove cell debris and measuring the fluorescent intensity of the CMFDA Dye in the lysate (λex/λem=492/517 nm using a plate reader (Spectramax3™, Molecular Devices™).

[2] = system: Balb/c aortic allograft in C57BL/6 recipient; test: Murine aortic interposition grafting, morphological analysis of allograft arteries; format: in vivo, mouse; settings: day 2 post-transplantation
Method: Murine aortic interposition grafting was performed as described previously.^13,14 Segments of abdominal aorta from Balb/c (H2d) donor mice were excised, flushed with UW solution and then incubated in UW solution alone (containing 5 Mm CaCl2, 0.2 U/Ml gTGase and 3 mM GSH) or UW solution fortified with 0.2 U/mL gtTGase and 0.5 Mm polymer (LPG-Q, LPG-QSia3Lac) for 1 hour at 4° C. Aortic segments were then flushed with saline and interposed into the resected infra-renal aorta of C57BL/6 (H2b) recipient mice.
At day 2, 15 and 42 post-transplantation, grafted artery segments were perfusion fixed with 4% (v/v) paraformaldehyde, excised, and frozen in optimal cutting temperature medium. […] Medial thickness was quantified using ImageJ software (NIH) as described.69 Histological features of acute rejection at day 15 post-transplantation were graded in a blinded manner on a 0-12 scale because acute rejection involves more extensive features of immune reaction and injury compared to day 2 post-transplantation. […] Leukocyte infiltration, medial injury and intimal thickening were each graded on a 0-4 scale and an aggregate score calculated. For evaluation of chronic rejection, intimal thickening at day 42 was quantified by averaging the luminal narrowing in 3 cross-sections per artery that were ˜100, 150 and 200 μm past the suture sites using ImageJ™ software.

[3] = system: TNF-α activated Ea.hy926 cells co-cultured with IL-2 activated PBMCs
Method: EA.hy 926 monolayers were activated using TNF-α and PBMCs were activated using IL-2 as described in PBMC adhesion experiments. Following activation, PBMC was collected and resuspended in DMEM (Phenol free, 5% FBS, pen/strep). PBMCs were then added to activated EA.hy 926 monolayers (modified and unmodified) to a final concentration of 0.15×10^6 cells/mL and left to incubate at 37° C. and 5% CO2 for 18 hour. After treatment, the supernatant was collected and cell debris was removed through centrifugation. LDH content was measured using LDC cytotoxicity assay (Biovision Inc.™). Cytotoxicity was calculated using the equation below;
where, LDHsample is the amount of LDH released from the sample, LDHPBMC is the amount of LDH released from PBMC samples not subjected to EA.hy 926 monolayers, LDHalive is the amount of LDH released from EA.hy 926 monolayers not subjected to PBMCs, and LDHdead is the amount of LDH released of EA.hy926 monolayers treated with RIPA buffer for 10 minutes at room temperature.

Which “half-life (t1/2) on the cell surface” value (Ea.hy926 cells) does the source give for “linear polyglycerol glutamine (Ac-GQQQLGGGGG-{LPG}; not fully specified; also: part of the polymer BODIPY FL-labelled in some experiments) [LPG-Q]” here?
The value was 8 h.

What about the “detection of ICAM-1 on the surface of endothelial cells” value (cell-surface ICAM-1) of the same substance?
Its value is “camouflages pro-inflammatory ICAM-1 receptors in a dose-dependent manner; also recorded: reduced the detection of ICAM-1”.

What about the “reduction of PBMC adhesion to endothelial cells compared to the control” value [1] of the same substance?
Its value is about 2.8 fold.

What about the “medial inflammation (graded 0-4)” value [2] of the same substance?
The value was “not demonstrated”.

What about the “decrease of PBMC-mediated cytotoxicity compared to unmodified cells” value [3] of the same substance?
The value was “under 2 fold”.

What about the “dependence of PBMC-mediated cytotoxicity suppression on polymer concentration or sialylation” value [3] of the same substance?
Its value is “no continued significant increase in immunosuppression was observed beyond 0.27 mM”.

Source: patent US20250059499A1, “CELL-SURFACE ENGINEERING COMPOSITIONS AND METHODS FOR THE PREVENTION OF IMMUNE REJECTION” (THE UNIVERSITY OF BRITISH COLUMBIA, priority 2021, published 2025)
